Results taken from PMC10897151, “Nature-inspired peptide of MtDef4 C-terminus tail enables protein delivery in mammalian cells” (Scientific Reports, 2024).
Peptide text beside a SMILES is read from it.

Tests used:
HeLa cells [1] = assay: Confocal microscopy imaging of cellular penetration; assay type: cell-based
Description: To this end, we explored the internalization kinetics of FITC-GMA4C into the cells. At the outset, we performed a dose–response investigation using a twofold dilution, identifying optimal conditions at 6uM for peptide visualization (Figs. 2 and 3). Subsequently, HeLa cells were cultured with 6 µM FITC-GMA4C and imaged at different time points.
Figure 4 Time response of FITC-GMA4C uptake into HeLa cells. (A) Cells were cultured with 6 µM of FITC-GMA4C at 37 °C, followed by PBS washing and subsequent fixation with 4% PFA and post-fixation staining with DAPI. Images of cells were taken by confocal microscopy visualizing FITC-GMA4C (green) and DAPI (Blue). Scale bar: 100 µm. (B) Quantification of FITC-GMA4C fluorescence intensity. Bars show the mean green fluorescence intensity relative to non-treated cells and normalized to the number of cells. Values were measured using the Color Threshold tab in Fiji. […]
Given the remarkable rate and efficiency of the free peptide cellular penetration, we further investigated its capacity to enhance the delivery of large biomolecules into cells. For that purpose, we evaluated the cellular permeabilization of recombinant GFP, expressed and purified with an N- or C-terminus fusion of GMA4C: GFP, GMA4C-GFP and GFP-GMA4C, respectively (Fig. S1). […] Subsequently, we quantified the cellular uptake of the exogenous proteins using flow cytometry analysis. […]

HeLa cells [2] = assay: Flow cytometry analysis of cellular uptake; assay type: cell-based; conditions: free FITC 25 µM, 2 h, trypsin treated
Description: To evaluate the capability of GMA4C to penetrate mammalian cells, we synthesized the peptide with a fluorescein isothiocyanate (FITC) fluorescent probe at its N-terminus (FITC-GMA4C). Subsequently, we incubated HeLa cells with varying concentrations of FITC-GMA4C for two hours. After thorough washing, we visualized the cells using confocal microscopy imaging. Remarkably, we observed the accumulation and intracellular localization of FITC-GMA4C within the cells, even at low micromolar concentrations (Figs. 3A,B, and S7A). The entry of FITC-GMA4C is depicted by green dots within the cells, indicating effective peptide transduction. […] To ensure that the detected fluorescence signal originated only from peptides internalized within the cells and not from peptides bound to the cell membrane, we washed the cells and subjected them to trypsin treatment at 37 °C. […]
Figure 3 Characterization of GMA4C penetration into HeLa cells by confocal imaging and flow cytometry analysis. […] (B) Quantification of FITC-GMA4C fluorescence intensity. Bars show the mean green fluorescence intensity relative to non-treated cells and normalized to the number of cells. Values were measured using the Color Threshold tab in Fiji. […] (C) Quantification of FITC-GMA4C peptide uptake by cells. […] (D) Quantitative evaluation of flow cytometry signal intensity. Values were measured using FloJo flow cytometry software. […]

| Compound | time at which significant uptake is observed (HeLa cells [1]) | time to reach uptake equilibrium (HeLa cells [1]) [min] | accumulation in the cell (HeLa cells [2]) |
| --- | --- | --- | --- |
| C[C@@H](O)[C@H](NC(=O)[C@H](CS)NC(=O)[C@H](Cc1ccccc1)NC(=O)[C@H](CS)NC(=O)[C@H](CCCNC(=N)N)NC(=O)[C@H](CCCNC(=N)N)NC(=O)[C@H](CCCNC(=N)N)NC(=O)[C@H](Cc1ccccc1)NC(=O)CNC(=O)[C@H](CCCNC(=N)N)NC(=O)[C@H](CS)NC(=O)[C@H](CCCNC(=N)N)NC(=O)CN)C(=O)N[C@H](C(=O)N[C@@H](Cc1c[nH]cn1)C(=O)N[C@@H](CS)C(=O)O)[C@@H](C)O [GMA4C] (H-GRCRGFRRRCFCTTHC-OH; N-terminus and C-terminus assumed) | under 15 min | ≤ 30 |  |
| fluorescein isothiocyanate [free-FITC] |  |  | only slightly accumulated |
